The structures appear in SMILES notation.

Format in all cases: in vivo
Data set [1] has as its system corn. In words: Test Example 1: post-emergence foliar spray pot test, safety against useful plants (phytotoxicity). The conditions noted are these: for Corn (phytotoxicity score): foliar spray 204 L/ha on plants grown 15 days, assessed after 11 days in greenhouse. From the text: Further, Test Examples are used to show an efficacy of the compound A on controlling weeds and safety against useful plants (phytotoxicity)
(§1) In the Test Examples as described below, for the assessment of weeds-controlling efficacy, the efficacy is defined as “0” if the condition of budding or growth of test pants in the treated area indicates little or no difference compared to that of the untreated area at the time of the investigation.
(§2) The “untreated group” represents a group where a similar treatment procedure to that of the treated group except not using the compound A is done.
(§3) A plastic pot was filled with soil. Ivyleaf morning glory (Ipomoea hederacea), Redroot pigweed (Amaranthus retroflexus) and corn were seeded to the plastic pot, and the plants are grown in a greenhouse for 15 days. A prescribed amount of the formulation prepared by the method of the formulation example 1 was diluted with water containing 1% of Agridex (registered trademark) to obtain a diluted solution. The diluted solution was uniformly sprayed at a rate of 204 L/ha from the upper side of the plants such that the applied dose of the compound A was made to 20 gai/ha or 10 gai/ha. Thereafter, the plants were grown in a greenhouse for 11 days, and the control efficacies were assessed by the above-mentioned method. The results are shown in [Table 1].
(§4) The comparative test was conducted by using the compound B in place of the compound A according to a similar method to that described in the Test example 1.

Data set [2] concerns Redroot pigweed (Amaranthus retroflexus). In words: Test Example 1: post-emergence foliar spray pot test, weed control efficacy. The conditions noted are these: for efficacy on controlling weeds against Redroot pigweed (Amaranthus retroflexus), in words: 20 or 10 gai/ha; for control efficacy, Amaranthus retroflexus: foliar spray 204 L/ha on plants grown 15 days, assessed after 11 days in greenhouse.
From the text: as §1, §2, §3, §4

Data set [3] concerns Ivyleaf morning glory (Ipomoea hederacea). The data set is described as above. The conditions noted are these: for efficacy on controlling weeds against Ivyleaf morning glory (Ipomoea hederacea), in words: 20 or 10 gai/ha; for control efficacy, Ipomoea hederacea: foliar spray 204 L/ha on plants grown 15 days, assessed after 11 days in greenhouse, scale 0 to 100 (all dead).
From the text: as §1, §2, §3, §4

The mark [4] stands for this setting: applied dose 10 gai/ha, scale 0 to 100 (all dead).
Setting [5] is: applied dose 20 gai/ha, scale 0 (no difference to untreated) to 100 (all dead).

As for `CCOC(=O)COc1ncccc1Oc1cc(-n2c(=O)cc(C(F)(F)F)n(C)c2=O)c(Cl)cc1Cl` [Compound A], the “phytotoxicity against corn, in words” value in data set [1] (in vivo) was “low phytotoxicity”. Besides, the “efficacy on controlling weeds against Redroot pigweed (Amaranthus retroflexus), in words” value in data set [2] is “high efficacies”. Moreover, the “control efficacy, Amaranthus retroflexus” value in data set [2] (setting [4]) and in data set [2] (setting [5]) was 100 in each case. Further, in data set [3], the “efficacy on controlling weeds against Ivyleaf morning glory (Ipomoea hederacea), in words” value was “high efficacies”. For the same compound, the “control efficacy, Ipomoea hederacea” value in data set [3] (applied dose 10 gai/ha) and in data set [3] (applied dose 20 gai/ha) was 100 each time.
Regarding `CCOC(=O)COc1ncccc1Oc1cc(-n2c(=O)cc(C(F)(F)F)n(C)c2=O)c(F)cc1Cl` [Compound B], in data set [1] (20 or 10 gai/ha), the “phytotoxicity against corn, in words” value was “high phytotoxicity”. Moreover, the “Corn (phytotoxicity score)” value in data set [1] (setting [4]) and in data set [1] (setting [5]) was 100 each time. The “efficacy on controlling weeds against Redroot pigweed (Amaranthus retroflexus), in words” value in data set [2] is “high efficacies”. Moreover, the “control efficacy, Amaranthus retroflexus” value in data set [2] (setting [4]) and in data set [2] (setting [5]) was 100 each time. Further, in data set [3], the “efficacy on controlling weeds against Ivyleaf morning glory (Ipomoea hederacea), in words” value is listed as “high efficacies”. The “control efficacy, Ipomoea hederacea” value in data set [3] (applied dose 10 gai/ha) and in data set [3] (applied dose 20 gai/ha) was 100 each time.

The values above are taken from patent publication US11932623B2, “Uracil compounds and use thereof” (Sumitomo Chemical Company, Limited, priority 2018, dated 2024).
